Data on nine compounds can be found in patent US10272095B2 (GlaxoSmithKline Intellectual Property Development Limited, priority 2015, dated 2019).

Where a name gives a salt, the structure may show the parent alone.

The first assay concerns NQO1 specific enzyme activity in BEAS-2B cells. The assay is described as follows: BEAS-2B NQO1 MTT assay. It is filed as cell-based. Conditions: Homo sapiens, BEAS-2B, 48 h, NQO1 specific enzyme activity induction in BEAS-2B cells, 48 hours; read-out: EC50. The method in brief: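 BEAS-2B cells exposed to compound 48 h at 37° C, 5% CO2, then lysed. NQO1 activity read kinetically in lysate with MTT cocktail (absorbance 570 nm, 30 min); Cell Titer Glo run on a lysate aliquot. pEC50 from ΔOD/min versus log concentration, 3-parameter fit.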
In general terms: Tetrazolium dyes change colour on reduction, which living cells bring about.
With `CC[C@@H]1CN([C@@H]2CCc3ccc([C@H](CC(=O)O)c4ccc5c(nnn5C)c4C)cc32)Cc2ccccc2O1` (relative stereo) [Example 82, rel-(S)-3-(1,4-Dimethyl-1H-benzo[d][1,2,3]triazol-5-yl)-3-(rel-(R)-3-((R)-2-ethyl-2,3-dihydrobenzo[f][1,4]oxazepin-4(5H)-yl)-2,3-dihydro-1H-inden-5-yl)propanoic acid], the EC50 – broadly, the concentration that produces a half-maximal response – was 0.01 to 0.1 µM.

As to `Cc1c([C@@H](c2ccc3c(c2)[C@H](N2Cc4ccccc4OC(C)(C)C2)CC3)C(C)(C)C(=O)O)ccc2c1nnn2C` (stereo in doubt) [Example 79, rel-(R)-3-(1,4-Dimethyl-1H-benzo[d][1,2,3]triazol-5-yl)-3-(rel-(R)-3(2,2-dimethyl-2,3-dihydrobenzo[f][1,4]oxazepin-4(5H)-yl)-2,3-dihydro-1H-inden-5-yl)-2,2-dimethylpropanoic acid], the EC50 lay in the range of 0.001 to 0.01 µM.

For the compound `CC[C@@H]1CN(C2CCc3ccc(C(CC(=O)O)c4cc(OC)c5c(nnn5C)c4C)cc32)Cc2ccccc2O1` (stereo partly drawn) [Example 45, 3-(3-((R)-2-Ethyl-2,3-dihydrobenzo[f][1,4]oxazepin-4(5H)-yl)-2,3-dihydro-1H-inden-5-yl)-3-(7-methoxy-1,4-dimethyl-1H-benzo[d][1,2,3]triazol-5-yl)propanoic Acid, Formic Acid Salt], the EC50 lay in the range of 0.01 to 0.1 µM.

Turning to `Cc1cc(F)ccc1C(CC(=O)O)c1ccc2c(c1)C(N1Cc3cccnc3OC(C)(C)C1)CC2` (stereo not drawn) [Example 60, 3-(3-(2,2-Dimethyl-2,3-dihydropyrido[3,2-f][1,4]oxazepin-4(5H)-yl)-2,3-dihydro-1H-inden-5-yl)-3-(4-fluoro-2-methylphenyl)propanoic Acid, Formic Acid Salt], the EC50 was in the range of 0.1 to 1 µM.

On to `Cc1c(C(CC(=O)O)c2ccc3c(c2)C2C(CCN2C(=O)Cc2ccccc2C#N)C3)ccc2c1nnn2C` (stereo not drawn) [Example 12, 3-{1-[2-(2-Cyanophenyl)acetyl]-1H,2H,3H,3aH,4H,8bH-indeno[1,2-b]pyrrol-7-yl}-3-(1,4-dimethyl-1H-1,2,3-benzotriazol-5-yl)propanoic Acid], for which the EC50 was 1 to 10 µM.

On to `Cc1c(C(c2ccc3c(c2)C(N2Cc4cccnc4O[C@@H](C)C2)CC3)C(C)(C)C(=O)O)ccc2c1nnn2C` (stereo partly drawn) [Example 49, 3-(1,4-Dimethyl-1H-benzo[d][1,2,3]triazol-5-yl)-2,2-dimethyl-3-(3-((S)-2-methyl-2,3-dihydropyrido[3,2-f][1,4]oxazepin-4(5H)-yl)-2,3-dihydro-1H-inden-5-yl)propanoic Acid, Formic Acid Salt], for which the EC50 fell in the range of 0.01 to 0.1 µM.

Turning to `Cc1c(C(c2ccc3c(c2)C(N2Cc4cnccc4OC(C)(C)C2)CC3)C(C)(C)C(=O)O)ccc2c1nnn2C` (stereo not drawn) [Example 33, 3-(1,4-Dimethyl-1H-benzo[d][1,2,3]triazol-5-yl)-3-(3-(2,2-dimethyl-2,3-dihydropyrido[3,4-f][1,4]oxazepin-4(5H)-yl)-2,3-dihydro-1H-inden-5-yl)-2,2-dimethylpropanoic Acid, Trifluoroacetic Acid Salt], the concentration giving a half-maximal response (EC50) was 0.001 to 0.01 µM.

`Cc1c(C(CC(=O)O)c2ccc3c(c2)C(N2Cc4ccc(F)cc4OC(C)(C)C2)CC3)ccc2c1nnn2C` (stereo not drawn) [Example 25, 3-(1,4-Dimethyl-1H-benzo[d][1,2,3]triazol-5-yl)-3-(3-(8-fluoro-2,2-dimethyl-2,3-dihydrobenzo[f][1,4]oxazepin-4(5H)-yl)-2,3-dihydro-1H-inden-5-yl)propanoic Acid]: the EC50 was in the range of 0.001 to 0.01 µM.

Staying with this assay, now noted: NQO1 specific enzyme activity induction in BEAS-2B cells, 48 hours; read-out: EC50.
As for `CC[C@@H]1CN([C@H]2CCc3ccc([C@@H](c4ccc5c(nnn5C)c4C)C(C)(C)C(=O)O)cc32)Cc2cnccc2O1` (relative stereo) [Example 85, rel-(S)-3-(1,4-Dimethyl-1H-benzo[d][1,2,3]triazol-5-yl)-3-(rel-(S)-3-((R)-2-ethyl-2,3-dihydropyrido[3,4-f][1,4]oxazepin-4(5H)-yl)-2,3-dihydro-1H-inden-5-yl)-2,2-dimethylpropanoic Acid], the EC50 lay within 0.01 to 0.1 µM.
